Data from US20240307415A1, “STEROID COMPOUND, AND PHARMACEUTICAL COMPOSITION THEREOF AND USE THEREOF” (JIANGSU SIMCERE PHARMACEUTICAL CO., LTD., priority 2021, published 2024).

Biological target: hERG potassium channel (Homo sapiens (Human), UniProt Q12809)
Experiment: hERG inhibitory activity, manual patch clamp
Type: cell-based
Details: HEK293 cells stably expressing hERG
Description: The inhibition of hERG activity by the compound of the present invention was determined using the following method.
HEK293 cells (Cat. No: K1236) stably expressing hERG ion channel were purchased from Invitrogen. The cells were cultured in a culture medium containing 85% DMEM, 10% dialyzed fetal bovine serum, 0.1 mM non-essential amino acid solution, 100 U/mL penicillin-streptomycin solution, 25 mM HEPES, 5 μg/mL blasticidin, and 400 μg/mL geneticin. When the cell density increased to 40-80% of the bottom area of the culture dish, the cells were digested with trypsin and subcultured thrice every week. Before the experiment, the cells were cultured at a density of 5×10^5 in 6-cm culture dishes, induced for 48 h with 1 μg/mL doxycycline, and then digested and inoculated on a slide for the subsequent manual patch-clamp experiment. […]
• 1) The slides carrying HEK293 cells in the culture dish were placed in the perfusion chamber of the micromanipulation stage. • 2) Appropriate cells were placed in the center of the field of view under an Olympus IX51, IX71, or IX73 inverted microscope. […] The peak value of the tail current was the magnitude of the hERG current. • 9) The hERG current used to detect the test compound was recorded continuously for 120 seconds prior to dosing to assess the stability of hERG current production by the test cells. […]

Sequence of hERG potassium channel (Q12809 whole entry): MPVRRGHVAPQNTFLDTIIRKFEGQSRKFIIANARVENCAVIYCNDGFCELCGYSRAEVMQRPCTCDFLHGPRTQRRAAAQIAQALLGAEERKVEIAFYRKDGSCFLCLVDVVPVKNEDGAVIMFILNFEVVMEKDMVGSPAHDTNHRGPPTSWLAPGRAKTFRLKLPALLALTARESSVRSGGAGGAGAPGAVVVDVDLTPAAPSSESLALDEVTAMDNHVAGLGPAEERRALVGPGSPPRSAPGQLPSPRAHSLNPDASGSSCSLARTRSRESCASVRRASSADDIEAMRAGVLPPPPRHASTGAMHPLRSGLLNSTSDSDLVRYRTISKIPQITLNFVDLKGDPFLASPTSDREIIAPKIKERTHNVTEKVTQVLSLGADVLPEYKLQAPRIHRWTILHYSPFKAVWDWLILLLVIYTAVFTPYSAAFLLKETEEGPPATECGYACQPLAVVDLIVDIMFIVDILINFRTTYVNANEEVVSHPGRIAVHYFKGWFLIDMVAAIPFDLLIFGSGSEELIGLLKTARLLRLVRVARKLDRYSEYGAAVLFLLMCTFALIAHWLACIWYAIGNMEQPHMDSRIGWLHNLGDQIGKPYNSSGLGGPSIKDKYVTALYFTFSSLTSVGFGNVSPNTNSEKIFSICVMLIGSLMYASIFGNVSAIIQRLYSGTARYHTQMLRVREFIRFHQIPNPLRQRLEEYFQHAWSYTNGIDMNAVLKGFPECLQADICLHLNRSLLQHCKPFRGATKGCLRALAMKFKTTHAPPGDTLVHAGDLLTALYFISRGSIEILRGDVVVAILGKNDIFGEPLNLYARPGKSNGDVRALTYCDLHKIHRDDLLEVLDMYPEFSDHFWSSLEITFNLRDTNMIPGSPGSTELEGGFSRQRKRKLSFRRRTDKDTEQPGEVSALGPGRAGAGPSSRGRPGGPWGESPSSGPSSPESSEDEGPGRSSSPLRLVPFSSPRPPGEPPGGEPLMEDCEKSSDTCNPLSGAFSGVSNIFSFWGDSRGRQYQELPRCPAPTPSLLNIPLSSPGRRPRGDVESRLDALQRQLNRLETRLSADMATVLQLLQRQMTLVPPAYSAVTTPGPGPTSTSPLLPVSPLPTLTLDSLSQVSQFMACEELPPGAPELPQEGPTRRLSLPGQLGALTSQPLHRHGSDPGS

Q: `C[C@]12C=CC(=O)C=C1CC[C@@H]1[C@@H]2[C@@H](O)C[C@@]2(C)[C@H]1C[C@H]1O[C@@H](c3ccc(Cc4cc(N)c5c(c4)CCO5)cc3)O[C@]12C(=O)CO` [Compound 009, (6aR,6bS,7S,8aS,8bS,10R,11aR,12aS,12bS)-10-(4-((7-amino-2,3-dihydrobenzofuran-5-yl)methyl)phenyl)-7-hydroxy-8b-(2-hydroxyacetyl)-6a,8a-dimethyl-6a,6b,7,8,8a,8b,11a,12,12a,12b-decahydro-1H-naphtho[2′,1′:4,5]indeno[1,2-d][1,3]dioxolan-4(2H)-one] was tested. Which IC50 did it give?
A: Its IC50 is over 30 µM.
